pIC50: −log10 of the molar value.
biological target: T1, human MC5R (hMC5R) (Homo sapiens, UniProt P33032); assay: Human MC5R radioligand binding assay (membranes, [125I] NDP-MSH displacement); settings: hMC5R binding; tested as trifluoroacetate or hydrochloride salts, or free bases; read-out: MC5R radioligand IC50
T1 construct: purchased Perkin Elmer RBXMC5M400UA
Outline: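 Frozen human MC5R membranes incubated with test compound and in-house iodogen-labeled, HPLC-purified [125I]NDP-MSH for 1 hr at 37° C. Binding measured as displacement of the radioligand.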

T1 sequence (P33032 whole entry): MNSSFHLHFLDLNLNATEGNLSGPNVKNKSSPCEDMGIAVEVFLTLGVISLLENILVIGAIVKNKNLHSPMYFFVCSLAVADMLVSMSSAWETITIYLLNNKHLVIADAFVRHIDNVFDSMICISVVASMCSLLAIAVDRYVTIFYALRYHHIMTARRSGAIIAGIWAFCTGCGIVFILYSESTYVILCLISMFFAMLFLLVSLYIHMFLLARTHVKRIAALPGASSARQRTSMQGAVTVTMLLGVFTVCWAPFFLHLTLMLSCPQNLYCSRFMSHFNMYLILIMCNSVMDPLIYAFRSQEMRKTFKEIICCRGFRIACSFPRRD

| Structure (SMILES) | pIC50 |
| --- | --- |
| CC[C@H](CN1CC[C@@H](CNC(=O)/C=C/c2ccc(Cl)cc2)N[C@@H](CCN2CCCC2)C1=O)c1ccccc1 [Compound 407, (E)-3-(4-chlorophenyl)-N-(((3S,5S)-2-oxo-1-((S)-2-phenylbutyl)-3-(2-(pyrrolidin-1-yl)ethyl)-1,4-diazepan-5-yl)methyl)acrylamide] | > 7.00 |
| CC[C@H](CN1CC[C@@H](CNC(=O)/C=C/c2ccc(Cl)cc2)N[C@@H](CCNC(C)C)C1=O)c1ccccc1 [Compound 408, (E)-3-(4-chlorophenyl)-N-(((3S,5S)-3-(2-(isopropylamino)ethyl)-2-oxo-1-((S)-2-phenylbutyl)-1,4-diazepan-5-yl)methyl)acrylamide] | > 7.00 |
| CC[C@H](CN1CC[C@@H](CNC(=O)c2ccc3cc(Cl)ccc3c2)N[C@@H](CCN2CCCC2)C1=O)c1ccccc1 [Compound 409, 6-chloro-N-(((3S,5S)-2-oxo-1-((S)-2-phenylbutyl)-3-(2-(pyrrolidin-1-yl)ethyl)-1,4-diazepan-5-yl)methyl)-2-naphthamide] | > 8.00 |
| CC[C@H](CN1CC[C@@H](CNC(=O)c2ccc(Cl)c(Cl)c2)N[C@@H](CCN2CCCCC2)C1=O)c1ccccc1 [Compound 410, 3,4-dichloro-N-(((3S,5S)-2-oxo-1-((S)-2-phenylbutyl)-3-(2-(piperidin-1-yl)ethyl)-1,4-diazepan-5-yl)methyl)benzamide] | > 7.00 |
| CC[C@H](CN1CC[C@@H](CNC(=O)c2ccc(Cl)c(Cl)c2)N[C@@H](CCN2CCCC2)C1=O)c1ccccc1 [Compound 411, 3,4-dichloro-N-(((3S,5S)-2-oxo-1-((S)-2-phenylbutyl)-3-(2-(pyrrolidin-1-yl)ethyl)-1,4-diazepan-5-yl)methyl)benzamide] | > 7.00 |
| O=C(NC[C@@H]1CCN(CC(c2ccccc2)c2ccccc2)C(=O)[C@H](CCN2CCCCC2)N1)OCc1ccccc1 [Compound 412, benzyl ((3S,5S)-1-(2,2-diphenylethyl)-2-oxo-3-(2-(piperidin-1-yl)ethyl)-1,4-diazepan-5-yl)methylcarbamate] | > 6.00 |
| O=C(/C=C/c1ccc(Br)cc1)NC[C@@H]1CCN(CC(c2ccccc2)c2ccccc2)C(=O)[C@H](CCN2CCCCC2)N1 [Compound 413, (E)-3-(4-bromophenyl)-N-(((3S,5S)-1-(2,2-diphenylethyl)-2-oxo-3-(2-(piperidin-1-yl)ethyl)-1,4-diazepan-5-yl)methyl)acrylamide] | > 8.00 |
| O=C(NC[C@@H]1CCN(CC(c2ccccc2)c2ccccc2)C(=O)[C@H](CCN2CCCCC2)N1)c1cc(-c2ccc(Cl)cc2)on1 [Compound 414, 5-(4-chlorophenyl)-N-(((3S,5S)-1-(2,2-diphenylethyl)-2-oxo-3-(2-(piperidin-1-yl)ethyl)-1,4-diazepan-5-yl)methyl)isoxazole-3-carboxamide] | > 7.00 |
| CC[C@H](CN1CC[C@@H](CNC(=O)c2ccc3cc(Cl)ccc3c2)N[C@@H](CN2CCCCC2)C1=O)c1ccccc1 [Compound 415, 6-chloro-N-(((3S,5S)-2-oxo-1-((S)-2-phenylbutyl)-3-(piperidin-1-ylmethyl)-1,4-diazepan-5-yl)methyl)-2-naphthamide] | > 7.00 |
| CC[C@H](CN1CC[C@@H](CNC(=O)c2ccc(Cl)c(Cl)c2)N[C@@H](CN2CCCCC2)C1=O)c1ccccc1 [Compound 416, 3,4-dichloro-N-(((3S,5S)-2-oxo-1-((S)-2-phenylbutyl)-3-(piperidin-1-ylmethyl)-1,4-diazepan-5-yl)methyl)benzamide] | > 6.00 |
| CC[C@H](CN1CC[C@@H](CNC(=O)c2ccc3cc(Cl)ccc3c2)N[C@@H](CCCN2CCCCC2)C1=O)c1ccccc1 [Compound 417, 6-chloro-N-(((3S,5S)-2-oxo-1-((S)-2-phenylbutyl)-3-(3-(piperidin-1-yl)propyl)-1,4-diazepan-5-yl)methyl)-2-naphthamide] | > 7.00 |
| CC[C@H](CN1CC[C@@H](CNC(=O)c2ccc(Cl)c(Cl)c2)N[C@@H](CCCN2CCCCC2)C1=O)c1ccccc1 [Compound 418, 3,4-dichloro-N-(((3S,5S)-2-oxo-1-((S)-2-phenylbutyl)-3-(3-(piperidin-1-yl)propyl)-1,4-diazepan-5-yl)methyl)benzamide] | > 7.00 |
| CC(C)(NC(=O)/C=C/c1ccc(Cl)cc1)[C@@H]1CCN(CC(c2ccccc2)c2ccccc2)C(=O)[C@H](CCN)N1 [Compound 419, (E)-N-(2-((3S,5S)-3-(2-aminoethyl)-1-(2,2-diphenylethyl)-2-oxo-1,4-diazepan-5-yl)propan-2-yl)-3-(4-chlorophenyl)acrylamide] | > 6.00 |
| CC(C)(NC(=O)/C=C/c1ccc(Cl)cc1)[C@@H]1CCN(CC(c2ccccc2)c2ccccc2)C(=O)[C@H](CCN2CCCCC2)N1 [Compound 420, (E)-3-(4-chlorophenyl)-N-(2-((3S,5S)-1-(2,2-diphenylethyl)-2-oxo-3-(2-(piperidin-1-yl)ethyl)-1,4-diazepan-5-yl)propan-2-yl)acrylamide] | > 6.00 |
| C[C@@H](CN1CC[C@@H](CNC(=O)c2ccc3ccccc3c2)N[C@@H](CCN)C1=O)c1ccc(Cl)cc1 [Compound 421, N-(((3S,5S)-3-(2-aminoethyl)-1-((R)-2-(4-chlorophenyl)propyl)-2-oxo-1,4-diazepan-5-yl)methyl)-2-naphthamide] | > 5.00 |
| CC(CN1CC[C@@H](CNC(=O)c2ccc3ccccc3c2)N[C@@H](CCN)C1=O)c1ccc(Cl)cc1 (stereo partly drawn) [Compound 422, N-(((3S,5S)-3-(2-aminoethyl)-1-(2-(4-chlorophenyl)propyl)-2-oxo-1,4-diazepan-5-yl)methyl)-2-naphthamide] | > 5.00 |
| C[C@@H](CN1CC[C@@H](CNC(=O)c2ccc3ccccc3c2)N[C@@H](CCN2CCCCC2)C1=O)c1ccc(Cl)cc1 [Compound 423, N-(((3S,5S)-1-((R)-2-(4-chlorophenyl)propyl)-2-oxo-3-(2-(piperidin-1-yl)ethyl)-1,4-diazepan-5-yl)methyl)-2-naphthamide] | > 5.00 |
| C[C@H](CN1CC[C@@H](CNC(=O)c2ccc3ccccc3c2)N[C@@H](CCN2CCCCC2)C1=O)c1ccc(Cl)cc1 [Compound 424, N-(((3S,5S)-1-((S)-2-(4-chlorophenyl)propyl)-2-oxo-3-(2-(piperidin-1-yl)ethyl)-1,4-diazepan-5-yl)methyl)-2-naphthamide] | > 6.00 |
| CC[C@H](CN1CC[C@@H](CNC(=O)c2ccc(Cl)c(Cl)c2)N[C@@H](CCN(C)c2ccccc2)C1=O)c1ccccc1 [Compound 425, 3,4-dichloro-N-(((3S,5S)-3-(2-(methyl(phenyl)amino)ethyl)-2-oxo-1-((S)-2-phenylbutyl)-1,4-diazepan-5-yl)methyl)benzamide] | > 6.00 |
| CC[C@H](CN1CC[C@@H](CNC(=O)c2ccc(Cl)c(Cl)c2)N[C@@H](CCN(CC)CC)C1=O)c1ccccc1 [Compound 426, 3,4-dichloro-N-(((3S,5S)-3-(2-(diethylamino)ethyl)-2-oxo-1-((S)-2-phenylbutyl)-1,4-diazepan-5-yl)methyl)benzamide] | > 7.00 |
| CC[C@H](CN1CC[C@@H](CNC(=O)c2ccc(Cl)c(Cl)c2)N[C@@H](CCN2CCOCC2)C1=O)c1ccccc1 [Compound 427, 3,4-dichloro-N-(((3S,5S)-3-(2-morpholinoethyl)-2-oxo-1-((S)-2-phenylbutyl)-1,4-diazepan-5-yl)methyl)benzamide] | > 7.00 |
| CC[C@H](CN1CC[C@@H](CNC(=O)c2ccc(Cl)c(Cl)c2)N[C@@H](CCNc2ccccc2)C1=O)c1ccccc1 [Compound 428, 3,4-dichloro-N-(((3S,5S)-2-oxo-3-(2-(phenylamino)ethyl)-1-((S)-2-phenylbutyl)-1,4-diazepan-5-yl)methyl)benzamide] | > 6.00 |
| CC[C@H](CN1CC[C@@H](CNC(=O)c2ccc(Cl)c(Cl)c2)N[C@@H](CCNCc2ccccc2)C1=O)c1ccccc1 [Compound 429, N-(((3S,5S)-3-(2-(benzylamino)ethyl)-2-oxo-1-((S)-2-phenylbutyl)-1,4-diazepan-5-yl)methyl)-3,4-dichlorobenzamide] | > 7.00 |
| CC[C@H](CN1CC[C@@H](CNC(=O)c2ccc(Cl)c(Cl)c2)N[C@@H](CCNC(C)(C)C)C1=O)c1ccccc1 [Compound 430, N-(((3S,5S)-3-(2-(tert-butylamino)ethyl)-2-oxo-1-((S)-2-phenylbutyl)-1,4-diazepan-5-yl)methyl)-3,4-dichlorobenzamide] | > 7.00 |
| CC[C@H](CN1CC[C@@H](CNC(=O)c2ccc(Cl)c(Cl)c2)N[C@@H](CCN2CCN(C)CC2)C1=O)c1ccccc1 [Compound 431, 3,4-dichloro-N-(((3S,5S)-3-(2-(4-methylpiperazin-1-yl)ethyl)-2-oxo-1-((S)-2-phenylbutyl)-1,4-diazepan-5-yl)methyl)benzamide] | > 7.00 |
| CCC[C@@H](CN1CC[C@@H](CNC(=O)c2ccc3ccccc3c2)N[C@@H](CCN2CCCCC2)C1=O)c1ccccc1 [Compound 432, N-(((3S,5S)-2-oxo-1-((R)-2-phenylpentyl)-3-(2-(piperidin-1-yl)ethyl)-1,4-diazepan-5-yl)methyl)-2-naphthamide] | > 7.00 |
| CCC[C@H](CN1CC[C@@H](CNC(=O)c2ccc3ccccc3c2)N[C@@H](CCN2CCCCC2)C1=O)c1ccccc1 [Compound 433, N-(((3S,5S)-2-oxo-1-((S)-2-phenylpentyl)-3-(2-(piperidin-1-yl)ethyl)-1,4-diazepan-5-yl)methyl)-2-naphthamide] | > 7.00 |
| O=C(NC[C@@H]1CCN(CC(c2ccccc2)c2ccccc2)C(=O)[C@H](CCN2CCCCC2)N1)c1ccc(C(F)(F)F)cc1 [Compound 434, N-(((3S,5S)-1-(2,2-diphenylethyl)-2-oxo-3-(2-(piperidin-1-yl)ethyl)-1,4-diazepan-yl)methyl)-4-(trifluoromethyl)benzamide] | > 7.00 |
| NCC[C@@H]1N[C@H](CNC(=O)c2ccc(C(F)(F)F)cc2)CCN(CC(c2ccccc2)c2ccccc2)C1=O [Compound 435, N-(((3S,5S)-3-(2-aminoethyl)-1-(2,2-diphenylethyl)-2-oxo-1,4-diazepan-5-yl)methyl)-4-(trifluoromethyl)benzamide] | > 5.00 |

Reference: patent publication US8008291B2 (Mimetica Pty Ltd, priority 2008, dated 2011)
